Measured values reported in publication PMC11375786, “Induction of Paraptotic Cell Death in Cancer Cells by Triptycene–Peptide Hybrids and the Revised Mechanism of Paraptosis II” (Biochemistry, 2024).
Like-named read-outs stand apart in the source and are kept apart here. Numbered stars: 1 amine (or outer) side, 2 acyl side, 3 side chain; on linkers, the order of the positions; unused ones are H or OH. Bridge positions count the residues as written; N and C are the ends. Square brackets hold non-standard residues; d marks the D form. Peptide text beside a SMILES is read from it. I, II: the chains in the order shown. X1 = O=C(COc1cccc2c1C1c3c(OCC(=O)NCCCCCCCCN[*:2])cccc3C2c2cccc(OCC(=O)NCCCCCCCCN[*:3])c21)NCCCCCCCCN[*:1]; Cha = N[C@@H](CC1CCCCC1)C(=O)O

Experiments:
[1] = tested on: Ca^2+ concentrations in mitochondria and cytosol in HeLa-S3 cells; test: Rhod-2/AM and Rhod-4/AM emission (mitochondrial and cytosolic Ca2+) in HeLa-S3 cells; type: cell-based, human; details: 4 5 μM 1 h; for Emission of Rhod-2/AM (mitochondrial Ca2+) in HeLa-S3 cells: celastrol or cisplatin 100 μM 2–6 h
Protocol: (§1) Jurkat, HeLa-S3, and A549 cells (2.0 × 10^5 cells) were preincubated with Rhod-2/AM (final concentration = 5 μM) or Rhod-4/AM (final concentration = 5 μM) in medium under 5% CO2 at 37 °C for 30 min and then treated with 4 (final concentration = 2.5, 5, or 10 μM) for 0, 15, 30, 45, and 60 min. HeLa-S3 and A549 cells were detached by accutase, immediately after which the cells were suspended in 300 μL of cell culture medium and then analyzed on a flow cytometer (FACS Calibur cytometer, Becton), and the data were analyzed using the FlowJo software (FlowJo, LCC).
(§2) Jurkat, HeLa-S3, A549, and IMR90 cells (2.0 × 10^5 cells) were stained with Rhod-2/AM or Rhod-4/AM (final concentration = 5 μM) for 30 min at 37 °C under 5% CO2. The cells were washed with PBS and were treated with 4 (final concentration = 2.5, 5, or 10 μM) in cell culture medium for 30 and 60 min at 37 °C under 5% CO2. To test the effect of celastrol and cisplatin in HeLa-S3 and A549 cells, the cells were incubated with celastrol (final concentration = 100 μM) and cisplatin (final concentration = 100 μM) for 2–6 h. After washing with PBS, the cells were observed via fluorescence microscopy (BZ-X800, Keyence) using a Greiner CELLview Petri dish (35 × 10 mm^2). Emission images were observed using a TRITC filter (excitation 540 nm, emission 605 nm).
(§3) Jurkat, HeLa-S3, A549, and IMR90 cells (8.0 × 10^4 cells) were incubated with CCCP or 2-APB for 1 h and then stained with Rhod-2/AM or Rhod-4/AM (final concentration = 5 μM) for 30 min at 37 °C under 5% CO2. The cells were washed with PBS and were treated with 4 (final concentration = 2.5, 5, or 10 μM) in PBS for 0–60 min at 37 °C in a microplate reader (ARVO, PerkinElmer). Excitation at 540 nm and emission at 590 nm were used for the measurement of Rhod-2/AM and Rhod-4/AM on the microplate reader.

[2] = tested on: HeLa-S3 cells; test: Costaining of ER and mitochondria (ERTracker Red, MitoTracker Green), confocal microscopy, HeLa-S3 cells; type: cell-based, human; details: 4 5 μM, 5 and 10 min; celastrol 100 μM
Protocol: (§4) Jurkat, HeLa-S3, A549, and IMR90 cells (2.0 × 10^5 cells) were incubated with 4 (final concentration = 2.5 μM (for Jurkat), 5 μM (for HeLa-S3), 10 μM (for A549) and 5 μM and 50 μM (for IMR90)) in cell culture medium at 37 °C under 5% CO2. After incubation, MitoTracker Green (final concentration = 100 nM (for Jurkat) or 500 nM (for HeLa-S3, A549 and IMR90)), or ERTracker Red (final concentration = 500 nM (for Jurkat) or 1 μM (for HeLa-S3, A549 and IMR90)) were applied for 1 h under the same conditions. After washing with PBS, the cells were observed via confocal fluorescence microscopy (FluoView, FV-1000, Olympus). Excitation at 473 nm and emissions from 485 to 585 nm were used for detecting the MitoTracker Green. Excitation at 559 nm and emissions from 570 to 670 nm were used for detecting the ERTracker Red. Exposure time was 20 μs/pixel.

[3] = tested on: A549 cells; test: Costaining of ER and mitochondria (ERTracker Red, MitoTracker Green), confocal microscopy, A549 cells; type: cell-based, human; details: 4 10 μM, 15 min; celastrol 100 μM
Protocol: as §4

[4] = tested on: Jurkat cells; test: cells; details: read-out: EC50 against Jurkat cells
Protocol: (§5) HeLa S3 cells (human cervical carcinoma) were cultured in Minimum essential medium (MEM) containing 10% FBS, penicillin, and streptomycin. A549 cells (human lung carcinoma) and IMR90 cells (human fetal lung fibroblast) were cultured in Dulbecco’s modified Eagle’s medium (DMEM) with 10% FBS, penicillin, and streptomycin. All cells were cultured at 37 °C under a humidified atmosphere containing 5% CO2.
(§6) Jurkat, HeLa-S3, A549 cells (2.0 × 10^5 cells/mL) and IMR90 cells (1.0 × 10^5 cells/mL) were incubated in the presence of 3–7 for 1 h, and etoposide, cisplatin and celastrol for 24 h (50 μL) in cell culture medium under CO2 at 37 °C in 96-well plates (BD Falcon). MTT reagent (5 mg/mL) in PBS (10 μL) was then added to the cells. After incubation at 37 °C for 4 h, a formazan lysis solution (10% sodium dodecyl sulfate (SDS) in 0.01 N HCl) (100 μL) was added and the resultant solution was incubated overnight under the same conditions, which was followed by measurement of the absorbance at 570 nm using a microplate reader (ARVO, PerkinElmer).

[5] = tested on: IMR90 cells; test: cells; details: read-out: EC50 against IMR90 cells
Protocol: as §5, §6

[6] = tested on: HeLa-S3 cells; test: cells; details: read-out: EC50 against HeLa-S3 cells
Protocol: as §5, §6

[7] = tested on: A549 cells; test: cells
Protocol: as §5, §6

[8] = tested on: intracellular Zn^2+ in Jurkat cells; test: Zinquin fluorescence microscopy in Jurkat cells; type: cell-based; details: 4 2.5 μM 1 h; celastrol 5 μM, etoposide 5 μM, cisplatin 100 μM 24 h
Protocol: (§7) Jurkat cells (2.0 × 10^5 cells) were treated with 4 (2.5 μM), etoposide (5 μM), cisplatin (100 μM) and celastrol (5 μM) and stained with Mito-FerroGreen (a probe for labile Fe^2+ in mitochondria) (5 μM) and zinquin (a probe for intracellular Zn^2+) (25 μM). The cell images were observed via fluorescence microscopy.

[9] = tested on: labile Fe^2+ in mitochondria of Jurkat cells; test: Mito-FerroGreen fluorescence microscopy in Jurkat cells; type: cell-based; details: 4 2.5 μM 1 h; celastrol 5 μM, etoposide 5 μM, cisplatin 100 μM 24 h
Protocol: as §7

[10] = tested on: Ca^2+ concentrations in mitochondria and cytosol in A549 cells; test: Rhod-2/AM and Rhod-4/AM emission (mitochondrial and cytosolic Ca2+) in A549 cells; type: cell-based, human; details: 4 10 μM 1 h; celastrol 100 μM 2–6 h
Protocol: as §1, §2, §3

[11] = tested on: Jurkat cells; test: Costaining of ER and mitochondria (ERTracker Red, MitoTracker Green), confocal microscopy, Jurkat cells; type: cell-based; details: 4 2.5 μM, CCCP 40 μM
Protocol: as §4

[12] = tested on: Jurkat cells; test: MTT assay of Jurkat cells treated with 4 or celastrol in the presence of inhibitors; type: cell-based; details: 4 2.5 μM 1 h; Z-VAD-fmk 15 μM, necrostatin-1 30 μM, 3-MA 10 μM, CCCP 40 μM, DIDS 75 or 100 μM, 2-APB 50 or 100 μM, RuRed 75 μM
Protocol: (a) Jurkat cells: Jurkat cells (2.0 × 10^5 cells/mL) in RPMI 1640 medium with 10% FBS were pretreated with the inhibitors (Z-VAD-fmk (final concentration = 15 μM), necrostatin-1 (final concentration = 30 μM), 3-MA (final concentration = 10 μM), and DIDS (75 or 100 μM)) for 3 h or pretreated with other inhibitors (CCCP (40 μM), FCCP (40 μM), 2-APB (50 or 100 μM) and RuRed (75 μM)) for 1 h under 5% CO2 at 37 °C. After incubation, 4 (final concentration = 2.5 μM) was added to the cell suspension, which was then incubated for 1 h at 37 °C. To test the effect of celastrol, the cells were pretreated with the aforementioned inhibitors and then incubated with celastrol (5 μM) for 24 h. MTT reagent (5 mg/mL) in PBS (10 μL) was added to the cells. After incubation at 37 °C for 4 h, a formazan lysis solution (10% sodium dodecyl sulfate (SDS) in 0.01 N HCl) (100 μL) was added, and the resultant solution was incubated overnight under the same conditions, followed by measurement of the absorbance at 570 nm using a microplate reader (ARVO, PerkinElmer).

[13] = tested on: HeLa-S3 cells; test: MTT assay of HeLa-S3 cells treated with 4 or celastrol in the presence of inhibitors; type: cell-based, human; details: 4 5 μM 1 h; Z-VAD-fmk 100 μM, necrostatin-1 100 μM, 3-MA 5 mM, CCCP 160 μM, DIDS 75 or 100 μM
Protocol: (b) HeLa-S3 cells: HeLa-S3 cells (2.0 × 10^5 cells/mL) in MEM medium with 10% FBS were pretreated with the inhibitors (3-MA (5 mM), and DIDS (75 or 100 μM)) for 3 h or pretreated with other inhibitors (Z-VAD-fmk (100 μM), necrostatin-1 (100 μM), CCCP (160 μM), and FCCP (80 μM)) for 1 h under 5% CO2 at 37 °C. After the incubation, 4 (final concentration = 5 μM) was added to the cell suspension, which was then incubated for 1 h at 37 °C. Subsequent procedures were the same as those used for the Jurkat cells.

[14] = tested on: A549 cells; test: MTT assay of A549 cells treated with 4 or celastrol in the presence of inhibitors; type: cell-based, human; details: 4 10 μM 1 h; Z-VAD-fmk 100 μM, necrostatin-1 100 μM, 3-MA 1 mM, CCCP 250 μM, DIDS 250 μM
Protocol: (c) A549 cells: A549 cells (2.0 × 10^5 cells/mL) in DMEM medium with 10% FBS were pretreated with the inhibitors (3-MA (1 mM), and DIDS (250 μM)) for 3 h or pretreated with other inhibitors (Z-VAD-fmk (100 μM), necrostatin-1 (100 μM), CCCP (250 μM), and FCCP (10 μM)) for 1 h under 5% CO2 at 37 °C. After incubation, 4 (final concentration = 10 μM) was added to the cell suspension, which was then incubated for 1 h at 37 °C. Subsequent procedures were the same as those used for the Jurkat cells.

[15] = target: trypsin (Sus scrofa, UniProt P00761); test: Stability after treatment with trypsin (RP-HPLC); details: 10 μM, trypsin 5 U/mL, 10 mM HEPES pH 7.5, 1 h, 37 °C
Protocol: 4 and 5 (10 μM) were incubated with trypsin (5 U/mL) in 10 mM 2-[4-(2-hydroxyethyl)-1-piperazinyl]ethanesulfonic acid ((HEPES), pH = 7.5) for 1 h at 37 °C and then analyzed via RP-HPLC (CH3CN (0.1% TFA)/H2O (0.1% TFA) = 20/80 to 70/30 (30 min), 1.0 mL/min).

[16] = MTT, incubation 24 h (etoposide, cisplatin, celastrol)

Chain of trypsin (P00761 9-231): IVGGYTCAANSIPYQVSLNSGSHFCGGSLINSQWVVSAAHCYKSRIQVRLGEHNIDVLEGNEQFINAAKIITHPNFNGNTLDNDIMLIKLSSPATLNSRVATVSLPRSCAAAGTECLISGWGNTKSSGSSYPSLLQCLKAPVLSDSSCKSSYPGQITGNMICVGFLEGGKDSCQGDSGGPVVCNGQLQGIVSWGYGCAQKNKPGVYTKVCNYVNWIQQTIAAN

CC1=C(O)C(=O)C=C2C1=CC=C1[C@@]2(C)CC[C@@]2(C)[C@@H]3C[C@](C)(C(=O)O)CC[C@]3(C)CC[C@]12C [celastrol]
Emission of Rhod-4/AM (cytosolic Ca2+) in HeLa-S3 cells ([1]; celastrol 100 μM 2–6 h): mitochondrial and cytoplasmic Ca^2+ overload
Emission of Rhod-2/AM (mitochondrial Ca2+) in HeLa-S3 cells [1]: mitochondrial and cytoplasmic Ca^2+ overload
Overlap of emission from MitoTracker Green and ERTracker Red in HeLa-S3 cells [2]: weaker overlap
Overlap of emission from MitoTracker Green and ERTracker Red in A549 cells [3]: weaker overlap
EC50 ([4]; Homo sapiens, Jurkat, 24 h): 0.9 ± 0.1 µM
EC50 ([5]; Homo sapiens, IMR-90, 24 h): > 25 µM
EC50 ([6]; Homo sapiens, HeLa S3, 24 h): 22 ± 6 µM
EC50 ([7]; Homo sapiens, A549, read-out: EC50 against A549 cells): 31 ± 2.2 µM
Emission from zinquin (intracellular free Zn2+) in Jurkat cells [8]: negligibly enhanced
Emission from Mito-FerroGreen (free Fe2+ in mitochondria) in Jurkat cells [9]: negligibly enhanced
Emission of Rhod-2/AM (mitochondrial Ca2+) in A549 cells [10]: mitochondrial Ca^2+ overload
Emission of Rhod-4/AM (cytosolic Ca2+) in A549 cells [10]: negligibly changed

N#CC(C#N)=NNc1cccc(Cl)c1 [CCCP, carbonyl cyanide 3-chlorophenylhydrazone]
Inhibition of the 4-induced overlap of emission from MitoTracker Green and ERTracker Red in Jurkat cells [11]: considerably inhibited
Inhibition of 4-induced cell death in Jurkat cells [12]: considerably inhibited
Inhibition of 4-induced cell death in HeLa-S3 cells [13]: considerably inhibited
Inhibition of 4-induced cell death in A549 cells [14]: considerably inhibited

N.N.[Cl][Pt][Cl] [cisplatin]
Emission of Rhod-2/AM (mitochondrial Ca2+) in HeLa-S3 cells [1]: weak enhancement
EC50 [4, 16]: 5.8 ± 1.4 µM
EC50 [5, 16]: > 12.5 µM
EC50 [6, 16]: 15 ± 3.4 µM
EC50 ([7]; read-out: EC50 against A549 cells, MTT, incubation 24 h (etoposide, cisplatin, celastrol)): > 100 µM
Emission from zinquin (intracellular free Zn2+) in Jurkat cells [8]: increases in both free-Fe^2+ and free-Zn^2+
Emission from Mito-FerroGreen (free Fe2+ in mitochondria) in Jurkat cells [9]: increases in both free-Fe^2+ and free-Zn^2+

NCCCC[C@@H]1NC(=O)CNC(=O)[C@H](CCC(=O)NCCCCCCCCNC(=O)COc2cccc3c2C2c4c(OCC(=O)NCCCCCCCCNC(=O)CC[C@@H]5NC(=O)[C@H](CC6CCCCC6)NC(=O)[C@H](CCCCN)NC(=O)[C@H](CCCCN)NC(=O)[C@H](CCCCN)NC(=O)CNC5=O)cccc4C3c3cccc(OCC(=O)NCCCCCCCCNC(=O)CC[C@@H]4NC(=O)[C@H](CC5CCCCC5)NC(=O)[C@H](CCCCN)NC(=O)[C@H](CCCCN)NC(=O)[C@H](CCCCN)NC(=O)CNC4=O)c32)NC(=O)[C@H](CC2CCCCC2)NC(=O)[C@H](CCCCN)NC(=O)[C@H](CCCCN)NC1=O [compound 5] (I: cyclo(KKK[Cha]EG) / II: cyclo(KKK[Cha]EG) / III: cyclo(KKK[Cha]EG); linker I:5-II:5-III:5 via X1)
Stability against trypsin digestion [15]: negligible decomposition
EC50 ([4]; MTT, incubation 1 h at 37 °C): 1.6 ± 0.1 µM
EC50 ([5]; MTT, incubation 1 h at 37 °C): > 25 µM
EC50 ([6]; MTT, incubation 1 h at 37 °C): 8.5 ± 0.4 µM
EC50 ([7]; read-out: EC50 against A549 cells, MTT, incubation 1 h at 37 °C): 9.5 ± 0.1 µM
